From PubChem BioAssay (NCI)
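Briefly, cells in 96-well plates were exposed to five compound concentrations for 48 h, and endpoints were estimated by linear interpolation. GI50 marks 50% less growth. TGI denotes the concentration required for complete inhibition of growth.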

Assays:
Assay in all cases: DTP human tumour cell line panel, 48 h
CCRF-CEM leukemia = system: CCRF-CEM leukemia
IGROV1 ovarian = system: IGROV1 ovarian
NCI-H226 lung = system: NCI-H226 lung
NCI-H522 lung = system: NCI-H522 lung
OVCAR-3 ovarian = system: OVCAR-3 ovarian
OVCAR-8 ovarian = system: OVCAR-8 ovarian
SN12C renal = system: SN12C renal
SNB-19 CNS = system: SNB-19 CNS
SW-620 colon = system: SW-620 colon
TK-10 renal = system: TK-10 renal

| Structure (SMILES) | GI50 (CCRF-CEM leukemia) | TGI (CCRF-CEM leukemia) | GI50 (IGROV1 ovarian) | TGI (IGROV1 ovarian) | GI50 (NCI-H226 lung) | TGI (NCI-H226 lung) | GI50 (NCI-H522 lung) | TGI (NCI-H522 lung) | GI50 (OVCAR-3 ovarian) | TGI (OVCAR-3 ovarian) | GI50 (OVCAR-8 ovarian) | TGI (OVCAR-8 ovarian) | GI50 (SN12C renal) | TGI (SN12C renal) | GI50 (SNB-19 CNS) | TGI (SNB-19 CNS) | GI50 (SW-620 colon) | TGI (SW-620 colon) | GI50 (TK-10 renal) | TGI (TK-10 renal) |
| --- | --- | --- | --- | --- | --- | --- | --- | --- | --- | --- | --- | --- | --- | --- | --- | --- | --- | --- | --- | --- |
| NS(=O)(=O)c1ccc(CCN=C=S)cc1 | 2.65 µM | 7.45 µM | 2.1 µM | 4.96 µM | 2.84 µM | 8.52 µM | 1.37 µM | 3.57 µM | 1.7 µM | 3.13 µM | 3.15 µM | 10.3 µM | 2.17 µM | 5.14 µM | 2.92 µM | 9.26 µM | 1.84 µM | 3.96 µM | 0.987 µM | 3.79 µM |
| CC(=O)O[C@H]1C(=O)[C@@]2(C)C(C(OC(=O)c3ccccc3)[C@]3(O)CC(OC(=O)C(O)C(NC(=O)c4ccc(C)cc4)c4ccccc4)C(C)=C1C3(C)C)[C@]1(OC(C)=O)CO[C@@H]1C[C@@H]2O (some centres not stated) | – | > 25 µM | – | 0.101 µM | – | – | – | < 0.0025 µM | – | < 0.0025 µM | – | > 25 µM | – | > 25 µM | – | 16.7 µM | – | – | – | 9.47 µM |
| Nc1nc2nc[nH]c2c(=O)[nH]1 | – | > 100 µM | – | > 100 µM | – | > 100 µM | – | > 100 µM | – | > 100 µM | – | > 100 µM | – | > 100 µM | – | – | – | > 100 µM | – | > 100 µM |
| Nc1ccc(/C=N/Nc2ccnc3c(N)cccc23)c2cccnc12 | 0.316 µM | 2.31 µM | – | – | 4.12 µM | 20.8 µM | 1.84 µM | 3.62 µM | 1.63 µM | 3.16 µM | – | – | – | – | – | – | – | – | 1.96 µM | 3.56 µM |
| N#CCCN(c1ccc(-c2nnc(NC(=O)CNNC(=O)CC(=O)Nc3ccccc3)s2)cc1)S(=O)(=O)c1ccccc1 | – | > 100 µM | – | > 100 µM | – | > 100 µM | – | > 100 µM | – | > 100 µM | – | > 100 µM | – | > 100 µM | – | > 100 µM | – | > 100 µM | – | > 100 µM |
| O=C(NO)C12C3C4C1C1C2C3C41C(=O)NO (configuration not stated) | – | > 100 µM | – | – | – | > 100 µM | – | > 100 µM | – | > 100 µM | – | > 100 µM | – | > 100 µM | – | > 100 µM | – | – | – | > 100 µM |
| O=[N+]([O-])c1nccn1COCCF | – | > 100 µM | – | > 100 µM | – | > 100 µM | – | > 100 µM | – | > 100 µM | – | > 100 µM | – | > 100 µM | – | > 100 µM | – | > 100 µM | – | > 100 µM |
| COc1ccc([C@H]2CC(=O)NCCCCN2)cc1 | – | > 100 µM | – | > 100 µM | – | > 100 µM | – | > 100 µM | – | – | – | > 100 µM | – | > 100 µM | – | > 100 µM | – | – | – | > 100 µM |
| NCCNC(=S)S | – | 90.6 µM | – | > 100 µM | – | > 100 µM | – | 16.6 µM | – | > 100 µM | – | > 100 µM | – | > 100 µM | – | > 100 µM | – | > 100 µM | – | > 100 µM |
| Cc1[nH]c(=O)[nH]c(=O)c1CO | > 100 µM | > 100 µM | > 100 µM | > 100 µM | – | – | > 100 µM | > 100 µM | > 100 µM | > 100 µM | > 100 µM | > 100 µM | > 100 µM | > 100 µM | > 100 µM | > 100 µM | > 100 µM | > 100 µM | > 100 µM | > 100 µM |
| Cc1cc(O)cc2c1O[C@@]1(C)CCC3[C@@]4(C)CC[C@H](O)C(C)(C)C4CC[C@@]3(C)[C@H]1C2 (some centres not stated) | – | 7.08 µM | – | 30.2 µM | – | 24.9 µM | – | 21.9 µM | – | 19.8 µM | – | 27 µM | – | 25.4 µM | – | – | – | 23.5 µM | – | 29 µM |
| O=C(/C=C\c1ccc(Cl)cc1Cl)c1cccs1 | – | 73.6 µM | – | – | – | 51.3 µM | – | 50.3 µM | – | 89.7 µM | – | 24.8 µM | – | 32.1 µM | – | 33.7 µM | – | 28.8 µM | – | 78.9 µM |
| N#Cc1ccnc(N2C(=O)CC[C@H]2C(=O)N(c2cncc(F)c2)[C@H](C(=O)NC2CC(F)(F)C2)c2ccccc2Cl)c1 | > 100 µM | > 100 µM | 44.5 µM | > 100 µM | > 100 µM | > 100 µM | > 100 µM | > 100 µM | 63.9 µM | > 100 µM | > 100 µM | > 100 µM | 60.8 µM | > 100 µM | > 100 µM | > 100 µM | > 100 µM | > 100 µM | – | – |
| COc1ccc2nc3ccccc3c(NCCCCCCN(C)CCCl)c2c1 | – | 0.348 µM | – | – | – | 1.55 µM | – | 1.58 µM | – | 3.12 µM | – | 1.81 µM | – | 1.75 µM | – | 2.77 µM | – | 1.52 µM | – | 4.91 µM |
| CC(C)OP(=O)(OC(C)C)C(=Nc1ccccc1)NNc1ccc([N+](=O)[O-])cc1 | – | 56.9 µM | – | – | – | 84.9 µM | – | 58 µM | – | > 100 µM | – | > 100 µM | – | > 100 µM | – | > 100 µM | – | > 100 µM | – | 46.2 µM |
| COc1ccccc1CNCCCN1C(=O)c2ccc3c4c(ccc(c24)C1=O)C(=O)N(CCCNCCCN)C3=O | 0.185 µM | 4.13 µM | 0.272 µM | 2.72 µM | 0.746 µM | 3.2 µM | 0.471 µM | 2.31 µM | 0.324 µM | 1.42 µM | 0.0735 µM | 2.83 µM | – | – | 0.605 µM | 4.05 µM | 0.105 µM | 1.79 µM | 1.57 µM | 6.36 µM |
| COP1(=O)Oc2ccccc2C(=O)C(C(F)(F)F)(C(F)(F)F)O1 (configuration not stated) | – | > 100 µM | – | > 100 µM | – | – | – | > 100 µM | – | – | – | > 100 µM | – | > 100 µM | – | > 100 µM | – | > 100 µM | – | > 100 µM |
| Cc1ccc(Cl)c(NC(=O)C(=O)C(C(=O)c2ccncc2)C2OC(=O)c3ccccc32)c1 (configuration not stated) | – | > 100 µM | – | > 100 µM | – | > 100 µM | – | > 100 µM | – | – | – | > 100 µM | – | > 100 µM | – | – | – | > 100 µM | – | > 100 µM |
| COc1cc2nc(Nc3cccc(F)c3)nc(Nc3cc(C)[nH]n3)c2cc1OC | 1.11 µM | > 100 µM | – | – | – | – | 1.92 µM | 4.94 µM | 1.82 µM | 3.41 µM | 1.76 µM | 5.61 µM | 1.89 µM | 3.79 µM | 1.95 µM | 4.05 µM | 1.84 µM | 3.75 µM | 1.82 µM | 3.68 µM |
| C[C@@H]1C=C2C(=O)O[C@@H]3CC[C@H](C1)[C@]23O | 2.66 µM | 11.5 µM | 2.87 µM | 10.4 µM | 7.02 µM | 40 µM | 2.24 µM | 9.43 µM | 3.44 µM | 11.1 µM | 4.04 µM | 28.6 µM | 5.65 µM | 31.2 µM | 22.9 µM | 93.8 µM | – | 12.8 µM | – | – |
